The first test deals with HT29 cells. Put plainly: HT29 cell necroptosis assay (TNF-α/Smac mimetic/z-VAD induced necrosis, viability). The class given is cell-based, human. The following applies: 10 μM test compound pretreated one hour, TNF-α (40 ng/mL), Smacmimetic (100 nM), z-VAD (20 μM) for 48 hours. As to the method: Biological in Vitro HT29 Cell Assay.
The efficacies of RIP1 inhibitors were tested in vitro using human colon cancer TH29 cells in a necroptosis assay. For the assay, Cells were added to 96-well plates and then 10 μM of the test compound was pretreated for one hour. Then the cells were treated with TNF-α (40 ng/mL), Smacmimetic (100 nM) and z-VAD (20 μM) for 48 hours, and the viability was quantified. DMSO pretreatment group was negative control, Nec-1 pretreatment group was positive control.
As to `CC(=O)Nc1ncc2ccc(-c3cnc(C)c(NC(=O)OC4CCCCC4)c3)cc2n1` [Compound A98], the “HT29 Inhibition (10 μM)” value was determined as 50%.
Still for that read-out and setting: with `Cc1ncc(-c2ccc3nc(NS(C)(=O)=O)sc3c2)cc1NC(=O)OC1CCCCC1` [Compound A85] the figure was 7%; with `CC(=O)Nc1nc2ccc(-c3cnc(CCCNC(=O)CCCCCNC(=O)CCCC[C@H]4SC[C@H]5NC(=O)N[C@H]54)c(NC(=O)c4cccc(F)c4)c3)cc2s1` [Compound A8], 10%; with `O=C(CCCC[C@@H]1SC[C@@H]2NC(=O)N[C@@H]21)NCCCCCC(=O)NCCCNc1nc2ccc(-c3cnc(Cl)c(NC(=O)c4cccc(F)c4)c3)cc2s1` [Compound A9], 8%.
Turning to `CNc1nc2ccc(-c3cnc(C)c(NC(=O)OC4CCCCC4)c3)cc2s1` [Compound A103], the “HT29 Inhibition (10 μM)” value was 20%.
Take `CC(=O)Nc1nc2ccc(-c3cnc(C)c(NC(=O)OCc4ccccc4)c3)cc2s1` [Compound A74]: the “HT29 Inhibition (10 μM)” value was found to be 8%.
For the molecule `CC(C)(C)OC(=O)NCCCNc1nc2ccc(-c3cnc(Cl)c(NC(=O)c4cccc(F)c4)c3)cc2s1` [Compound A6], the “HT29 Inhibition (10 μM)” value worked out at 5%.
`Cc1ncc(-c2ccc3nc(N(C)C(=O)CCCCCNC(=O)OC(C)(C)C)sc3c2)cc1NC(=O)Cc1ccccc1` [Compound A101]: the “HT29 Inhibition (10 μM)” value was 5%.
On the same count and under the same terms, with `Cc1ncc(-c2ccc3[nH]c(=O)ccc3c2)cc1NC(=O)OC1CCCCC1` [Compound A97] the figure was 7%; with `CC(=O)Nc1nc2ccc(-c3cnc(C)c(NC(=O)CC4CC4)c3)cc2s1` [Compound A42, N-(5-(2-acetamidobenzo[d]thiazol-6-yl)-2-methylpyridin-3-yl)-2-cyclopropylacetamide], 22%.
Still for that read-out and setting: under `CC(=O)Nc1nc2ccc(-c3cnc(C)c(NC(=O)CN4CCOCC4)c3)cc2s1` [Compound A38] stands 33%; under `Cc1ncc(-c2ccc3nc(NCC#N)sc3c2)cc1NC(=O)OC1CCCCC1` [Compound A91], 40%; under `CC(=O)Nc1nc2ncc(-c3cnc(C)c(NC(=O)OC4CCCCC4)c3)cc2s1` [Compound A63], 9%.
Take `CC(=O)Nc1nc2ccc(-c3cnc(C)c(NC(=O)CN4CCC(O)CC4)c3)cc2s1` [Compound A39]: the “HT29 Inhibition (10 μM)” value was determined as 9%.
Turning to `CC(=O)Nc1nc2ccc(-c3cnc(C)c(NC(=O)CN4CCCC4)c3)cc2s1` [Compound A41], the “HT29 Inhibition (10 μM)” value stood at 14%.
For `NCCCNc1nc2ccc(-c3cnc(Cl)c(NC(=O)c4cccc(F)c4)c3)cc2s1` [Compound A7], the “HT29 Inhibition (10 μM)” value is given as 8%.
Still for that read-out and setting: under `O=C(Nc1cc(-c2ccc3ncsc3c2)cnc1Cl)c1cccc(F)c1` [Compound A11] stands 8%; under `CC(=O)Nc1nc2ccc(-c3cnc(C)c(NC(=O)O[C@H]4CC[C@H](O)CC4)c3)cc2s1` [Compound A79], 35%; under `O=C(Cc1ccccc1)Nc1cc(-c2ccc3ncsc3c2)cnc1Cl` [Compound A100], 9%.
As to `CC(=O)Nc1ncc2cc(-c3cnc(C)c(NC(=O)OC4CCCCC4)c3)ccc2n1` [Compound A96], the “HT29 Inhibition (10 μM)” value is given as 8%.
In the case of `CC(=O)Nc1nc2ccc(-c3cncc(NC(=O)Cc4ccccc4)n3)cc2s1` [Compound A33], the “HT29 Inhibition (10 μM)” value was found to be 1%.
`CC(=O)Nc1nc2ccc(-c3cnc(Cl)c(NC(=O)c4ccccn4)c3)cc2s1` [Compound A2]: the “HT29 Inhibition (10 μM)” value is 8%.
Take `CC(=O)Nc1nc2ccc(-c3cncc(NC(=O)Cc4ccccc4Cl)n3)cc2s1` [Compound A34]: the “HT29 Inhibition (10 μM)” value is listed as 1%.
In the case of `CC(=O)Nc1nc2ccc(-c3cccc(NC(=O)Cc4ccccc4Cl)n3)cc2s1` [Compound A35], the “HT29 Inhibition (10 μM)” value was determined as 1%.
Still for that read-out and setting: with `Cc1ncc(-c2ccc3nc(N(C)C(=O)CCCCCNC(=O)CCCCCNC(=O)CCCC[C@@H]4SC[C@@H]5NC(=O)N[C@@H]54)sc3c2)cc1NC(=O)Cc1ccccc1` [Compound A102] the figure was 5%.
For `CC(=O)Nc1nc2ccc(-c3cnc(C)c(NC(=O)Oc4ccccc4)c3)cc2s1` [Compound A82], the “HT29 Inhibition (10 μM)” value was found to be 7%.
The same measure, in the same setting: under `O=C(Nc1cc(-c2ccc3nncn3c2)cnc1Cl)c1cccc(F)c1` [Compound A10] stands 1%.
Take `CC(=O)Nc1nc2ccc(-c3cnc(C)c(NC(=O)OC4COC4)c3)cc2s1` [Compound A93]: the “HT29 Inhibition (10 μM)” value is reported as 8%.
With `Cc1ncc(-c2ccc3nc(NC(=O)CCCCCNC(=O)CCCCCNC(=O)CCCC[C@@H]4SC[C@@H]5NC(=O)N[C@@H]54)sc3c2)cc1NC(=O)Cc1ccccc1` [Compound A32], the “HT29 Inhibition (10 μM)” value was 21%.
The same measure, in the same setting: with `CC(=O)Nc1nc2ccc(-c3cncc(NC(=O)Cc4cccc(F)c4)c3)cc2s1` [Compound A17] the figure was 45%.
Take `CC(=O)Nc1nc2ccc(-c3ccnc(NC(=O)OC4CCCCC4)c3)cc2s1` [Compound A75]: the “HT29 Inhibition (10 μM)” value is 6%.
As for `CC(=O)Nc1nc2ccc(-c3cc(NC(=O)OC4CCCCC4)ncn3)cc2s1` [Compound A76], the “HT29 Inhibition (10 μM)” value is 5%.
Regarding `CC(=O)Nc1nc2ccc(-c3cnc(C)c(NC(=O)OC4CCC5(CC4)OCCO5)c3)cc2s1` [Compound A77], the “HT29 Inhibition (10 μM)” value is given as 60%.
Regarding `CCOC(=O)Nc1cc(-c2ccc3nc(NC(C)=O)sc3c2)cnc1C` [Compound A52], the “HT29 Inhibition (10 μM)” value came out at 10%.

For a further test, the system named is HT29 cells. The description is as above. The following applies: Homo sapiens, HT-29, HT29 cells, TNF-α/Smacmimetic/z-VAD induced necrosis; values given in μM. The class given is cell-based, human.
For the molecule `CC(=O)Nc1nc2ccc(-c3cnc(C)c(NC(=O)OC4CCCCC4)c3)cn2n1` [Compound A53], half-maximal inhibition (IC50) required 2.19 µM.
On to `CC(=O)Nc1nc2cnc(-c3cnc(C)c(NC(=O)OC4CCCCC4)c3)cc2s1` [Compound A64], for which the half-inhibitory concentration (IC50) (commonly the concentration needed to halve the response being measured) is 1 µM.

Staying with this test, now noted: Homo sapiens, HT-29, HT29 cells, TNF-α/Smacmimetic/z-VAD induced necrosis; values in nM.
`CC(=O)Nc1cn2nc(-c3cnc(C)c(NC(=O)OC4CCCCC4)c3)ccc2n1` [Compound A65] gave a half-maximal inhibitory concentration (IC50) of 0.167 µM.
In turn, `CC(=O)Nc1nc2ccc(-c3cnc(C)c(NC(=O)OC4CCOCC4)c3)cc2s1` [Compound A55] yielded an IC50 of 0.253 µM.
Regarding `CC(=O)Nc1nc2ccc(-c3cnc(C)c(NC(=O)OC4CCCCCC4)c3)cc2s1` [Compound A87], half-maximal inhibition (IC50) required 0.009 µM.
Turning to `CC(=O)Nc1nc2ccc(-c3cnc(C)c(NC(=O)OC4CCC5(CC4)CC5)c3)cc2s1` [Compound A95], the IC50 was found to be 0.053 µM.
Molecule `CC(=O)Nc1nc2ccc(-c3cnc(C)c(NC(=O)OC(C)C4CC4)c3)cc2s1` (centres unmarked) [Compound A88] gave an IC50 of 0.04 µM.
Still for that read-out and setting: with `CC(=O)Nc1nc2ccc(-c3cnc(C)c(NC(=O)NC4CCCCC4)c3)cc2s1` [Compound A49] the figure was 0.357 µM; with `CC(=O)Nc1nc2ccc(-c3cnc(C)c(NC(=O)OC(C)(C)C)c3)cc2s1` [Compound A48], 0.5 µM; with `CC(=O)Nc1nc2ccc(-c3cnc(C)c(NC(=O)OC(C)C)c3)cc2s1` [Compound A73], 0.287 µM.
The molecule `CCC(CC)OC(=O)Nc1cc(-c2ccc3nc(NC(C)=O)sc3c2)cnc1C` [Compound A89] yielded an IC50 of 0.051 µM.
Turning to `CCOC(=O)Nc1nc2ccc(-c3cnc(C)c(NC(=O)OC4CCCCC4)c3)cc2s1` [Compound A62], half-maximal inhibition (IC50) was put at 0.063 µM.
In the case of `Cc1ncc(-c2ccc3nc(N)sc3c2)cc1NC(=O)OC1CCCCC1` [Compound A70, Cyclohexyl (5-(2-aminobenzo[d]thiazol-6-yl)-2-methylpyridin-3-yl)carbamate], the IC50 is 0.093 µM.
